According to ChEMBL document CHEMBL5303573, “Mapping human microbiome drug metabolism by gut bacteria and their genes” (Nature, 2019):

Tests used:
[1] = The drug is tested on Clostridium sp. strain: fecal isolate for biotransformation. The drug concentrations were measured before and after a 12-h incubation by liquid-chromatography-coupled mass spectrometry (LC–MS); details: 2 µM
[2] = bacteroides thetaiotaomicron, 12 h, 2 µM
Description: The drug is tested on Bacteroides thetaiotaomicron strain: 3731 for biotransformation. The drug concentrations were measured before and after a 12-h incubation by liquid-chromatography-coupled mass spectrometry (LC–MS)

[3] = victivallis vadensis, 12 h, 2 µM
Description: The drug is tested on Victivallis vadensis strain: ATCC BAA-548 for biotransformation. The drug concentrations were measured before and after a 12-h incubation by liquid-chromatography-coupled mass spectrometry (LC–MS)

[4] = segatella copri, 12 h, 2 µM
Description: The drug is tested on Prevotella copri strain: DSM18205 for biotransformation. The drug concentrations were measured before and after a 12-h incubation by liquid-chromatography-coupled mass spectrometry (LC–MS)

[5] = The drug is tested on Enterococcus faecalis strain: V583 for biotransformation. The drug concentrations were measured before and after a 12-h incubation by liquid-chromatography-coupled mass spectrometry (LC–MS); details: 2 µM
[6] = The drug is tested on Bacteroides vulgatus strain: ATCC8482 for biotransformation. The drug concentrations were measured before and after a 12-h incubation by liquid-chromatography-coupled mass spectrometry (LC–MS); details: phocaeicola vulgatus, 2 µM
[7] = (§1) The drug is tested on the gut metagenome community of MV23 with ENA study accession number: PRJEB31790 and ENA sample accession number: SAMEA5537504 for biotransformation. The drug concentrations were measured over 9 timepoints collected between 0 and 24 hours of incubation by liquid-chromatography-coupled mass spectrometry (LC–MS); format: ADME; design: dose 2 uM, timepoint 0, 1, 2, 4, 6, 8, 12, 18, 24 hours; details: 2 µM
[8] = as §1, with “MV07” for “MV23”, “SAMEA5537488” for “SAMEA5537504”; format: ADME; design: dose 2 uM, timepoint 0, 1, 2, 4, 6, 8, 12, 18, 24 hours; details: 2 µM
[9] = as §1, with “MV03” for “MV23”, “SAMEA5537484” for “SAMEA5537504”; format: ADME; design: dose 2 uM, timepoint 0, 1, 2, 4, 6, 8, 12, 18, 24 hours; details: 2 µM
[10] = as §1, with “MV18” for “MV23”, “SAMEA5537499” for “SAMEA5537504”; format: ADME; design: dose 2 uM, timepoint 0, 1, 2, 4, 6, 8, 12, 18, 24 hours; details: 2 µM
[11] = as §1, with “MV25” for “MV23”, “SAMEA5537506” for “SAMEA5537504”; format: ADME; design: dose 2 uM, timepoint 0, 1, 2, 4, 6, 8, 12, 18, 24 hours; details: 2 µM
[12] = as §1, with “MV24” for “MV23”, “SAMEA5537505” for “SAMEA5537504”; format: ADME; design: dose 2 uM, timepoint 0, 1, 2, 4, 6, 8, 12, 18, 24 hours; details: 2 µM
[13] = as §1, with “MV12” for “MV23”, “SAMEA5537493” for “SAMEA5537504”; format: ADME; design: dose 2 uM, timepoint 0, 1, 2, 4, 6, 8, 12, 18, 24 hours; details: 2 µM
[14] = as §1, with “MV26” for “MV23”, “SAMEA5537507” for “SAMEA5537504”; format: ADME; design: dose 2 uM, timepoint 0, 1, 2, 4, 6, 8, 12, 18, 24 hours; details: 2 µM
[15] = as §1, with “MV09” for “MV23”, “SAMEA5537490” for “SAMEA5537504”; format: ADME; design: dose 2 uM, timepoint 0, 1, 2, 4, 6, 8, 12, 18, 24 hours; details: 2 µM
[16] = as §1, with “MV01” for “MV23”, “SAMEA5537482” for “SAMEA5537504”; format: ADME; design: dose 2 uM, timepoint 0, 1, 2, 4, 6, 8, 12, 18, 24 hours; details: 2 µM
[17] = as §1, with “MV04” for “MV23”, “SAMEA5537485” for “SAMEA5537504”; format: ADME; design: dose 2 uM, timepoint 0, 1, 2, 4, 6, 8, 12, 18, 24 hours; details: 2 µM
[18] = The drug is tested on Clostridium hathewayi strain: DSM13479 for biotransformation. The drug concentrations were measured before and after a 12-h incubation by liquid-chromatography-coupled mass spectrometry (LC–MS); details: hungatella hathewayi, 2 µM
[19] = The drug is tested on Clostridium spiroforme strain: DSM1552 for biotransformation. The drug concentrations were measured before and after a 12-h incubation by liquid-chromatography-coupled mass spectrometry (LC–MS); details: thomasclavelia spiroformis, 2 µM
[20] = The drug is tested on Salmonella typhimurium strain: LT2 for biotransformation. The drug concentrations were measured before and after a 12-h incubation by liquid-chromatography-coupled mass spectrometry (LC–MS); details: salmonella enterica subsp. enterica, 2 µM

Row | Compound | Bacterial Biotransformation [1] | Bacterial Biotransformation [2] | Bacterial Biotransformation [3] | Bacterial Biotransformation [4] | Bacterial Biotransformation [5] | Bacterial Biotransformation [6] | also measured
1 | CCCCC(=O)N(Cc1ccc(-c2ccccc2-c2nnn[nH]2)cc1)[C@H](C(=O)O)C(C)C | Compound NOT metabolized | Compound metabolized | Compound NOT metabolized | Compound NOT metabolized | Compound NOT metabolized | Compound metabolized | 
2 | COc1ccc(/C=C/C(=O)Nc2ccccc2C(=O)O)cc1OC | Compound NOT metabolized | Compound NOT metabolized | Compound NOT metabolized | Compound metabolized | Compound NOT metabolized |  | 
3 | CCCCC(=O)O[C@]1(C(=O)CO)[C@@H](C)C[C@H]2[C@@H]3CCC4=CC(=O)C=C[C@]4(C)[C@@]3(F)[C@@H](O)C[C@@]21C [BETAMETHASONE VALERATE] | Compound metabolized | Compound metabolized | Compound metabolized | Compound NOT metabolized | Compound NOT metabolized | Compound metabolized | 
4 | C[C@@H]1C[C@H]2[C@@H]3CCC4=CC(=O)C=C[C@]4(C)[C@@]3(F)[C@@H](O)C[C@]2(C)[C@@]1(O)C(=O)CO [DEXAMETHASONE] |  | Compound NOT metabolized | Compound NOT metabolized | Compound NOT metabolized | Compound NOT metabolized |  | Bacterial Biotransformation [7]: Compound NOT metabolized; Bacterial Biotransformation [8]: Compound NOT metabolized; Bacterial Biotransformation [9]: Compound metabolized; Bacterial Biotransformation [10]: Compound NOT metabolized; Bacterial Biotransformation [11]: Compound NOT metabolized; Bacterial Biotransformation [12]: Compound metabolized; Bacterial Biotransformation [13]: Compound NOT metabolized; Bacterial Biotransformation [14]: Compound NOT metabolized; Bacterial Biotransformation [15]: Compound metabolized; Bacterial Biotransformation [16]: Compound NOT metabolized; Bacterial Biotransformation [17]: Compound NOT metabolized
5 | CN(C)C(=O)C(CCN1CCC(O)(c2ccc(Cl)cc2)CC1)(c1ccccc1)c1ccccc1 [LOPERAMIDE] | Compound metabolized | Compound NOT metabolized | Compound NOT metabolized |  | Compound NOT metabolized | Compound metabolized | 
6 | OC(c1cc(C(F)(F)F)nc2c(C(F)(F)F)cccc12)C1CCCCN1 (stereo not drawn) [MEFLOQUINE] |  | Compound NOT metabolized |  | Compound NOT metabolized | Compound NOT metabolized | Compound NOT metabolized | 
7 | CC12CC3CC(C)(C1)CC(N)(C3)C2 [MEMANTINE] | Compound NOT metabolized | Compound NOT metabolized |  |  | Compound NOT metabolized | Compound NOT metabolized | 
8 | Cc1cc(C)cc(OCC2CNC(=O)O2)c1 (stereo not drawn) [METAXALONE] | Compound metabolized | Compound NOT metabolized |  |  | Compound NOT metabolized | Compound metabolized | 
9 | COc1c2occc2cc2ccc(=O)oc12 [METHOXSALEN] | Compound metabolized |  |  | Compound NOT metabolized | Compound NOT metabolized |  | Bacterial Biotransformation [18]: Compound metabolized; Bacterial Biotransformation [19]: Compound NOT metabolized
10 | COC(=O)C(c1ccccc1)C1CCCCN1 (stereo not drawn) [METHYLPHENIDATE] | Compound metabolized | Compound NOT metabolized |  |  | Compound NOT metabolized |  | Bacterial Biotransformation [20]: Compound NOT metabolized
